# Assay results reported in PubChem BioAssay AID2060489 (Molecular Pharmacology Branch, DTP, NCI, 2025).
# Test system: 922993-354-T-J3-PDC complex spheroids, viability
# Assay: Anticancer human tumor 922993-354-T-J3-PDC patient-derived endometrial carcinoma cell line growth inhibition [GQUAD]
# Conditions: for IC50: curve of first compound; for viability, T/C: stronger effect = lower value
# How it was run: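 Multi-cell-type spheroids of tumor cells with HUVEC and mesenchymal stem cells, treated with drug combinations. Concentrations descend in half-log steps from near clinical Cmax, or from 10 microM where Cmax is unknown; viability read-out.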
# [1] = second compound 0.0316 µM, first compound 0.0316 µM
# [2] = second compound 0.0316 µM, first compound 0.1 µM
# [3] = second compound 0.0316 µM, first compound 0.316 µM
# [4] = second compound 0.0316 µM, first compound 1 µM
# [5] = second compound 0.0316 µM, first compound 3.16 µM
# [6] = second compound 0.0316 µM, first compound 10 µM
# [7] = second compound 0.1 µM, first compound 0.0316 µM
# [8] = second compound 0.1 µM, first compound 0.1 µM
# [9] = second compound 0.1 µM, first compound 0.316 µM
# [10] = second compound 0.1 µM, first compound 1 µM
# [11] = second compound 0.1 µM, first compound 3.16 µM
# [12] = second compound 0.1 µM, first compound 10 µM
# [13] = second compound 0.316 µM, first compound 0.0316 µM
# [14] = second compound 0.316 µM, first compound 0.1 µM
# [15] = second compound 0.316 µM, first compound 0.316 µM
# [16] = second compound 0.316 µM, first compound 1 µM
# [17] = second compound 0.316 µM, first compound 3.16 µM
# [18] = second compound 0.316 µM, first compound 10 µM
# [19] = second compound 1 µM, first compound 0.0316 µM
# [20] = second compound 1 µM, first compound 0.1 µM
# [21] = second compound 1 µM, first compound 0.316 µM
# [22] = second compound 1 µM, first compound 1 µM
# [23] = second compound 1 µM, first compound 3.16 µM
# [24] = second compound 1 µM, first compound 10 µM
# [25] = second compound 3.16 µM, first compound 0.0316 µM
# [26] = second compound 3.16 µM, first compound 0.1 µM
# [27] = second compound 3.16 µM, first compound 0.316 µM
# [28] = second compound 3.16 µM, first compound 1 µM
# [29] = second compound 3.16 µM, first compound 3.16 µM
# [30] = second compound 3.16 µM, first compound 10 µM
# [31] = second compound 10 µM, first compound 0.0316 µM
# [32] = second compound 10 µM, first compound 0.1 µM
# [33] = second compound 10 µM, first compound 0.316 µM
# [34] = second compound 10 µM, first compound 1 µM
# [35] = second compound 10 µM, first compound 3.16 µM
# [36] = second compound 10 µM, first compound 10 µM
# 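Also: spheroids exposed to compounds for seven days.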
# 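For viability, T/C in this document: 100% = DMSO vehicle control viability.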
compound,measurement,setting,value
C=CCn1c(=O)c2cnc(Nc3ccc(N4CCN(C)CC4)cc3)nc2n1-c1cccc(C(C)(C)O)n1 + Cc1[nH]c2ccc(F)cc2c1-c1nc2c3cccnc3c3ncccc3c2[nH]1,IC50,second compound 0.0316 µM,4.83 µM
same,IC50,second compound 0.1 µM,4.5 µM
same,IC50,second compound 0.316 µM,3.37 µM
same,IC50,second compound 1 µM,5.51 µM
same,IC50,second compound 3.16 µM,5.24 µM
same,IC50,second compound 10 µM,4.37 µM
same,"viability, T/C",[1],119%
same,"viability, T/C",[2],107%
same,"viability, T/C",[3],119%
same,"viability, T/C",[4],101%
same,"viability, T/C",[5],70.6%
same,"viability, T/C",[6],16.6%
same,"viability, T/C",[7],127%
same,"viability, T/C",[8],81.2%
same,"viability, T/C",[9],108%
same,"viability, T/C",[10],91.7%
same,"viability, T/C",[11],64.6%
same,"viability, T/C",[12],16.4%
same,"viability, T/C",[13],97.5%
same,"viability, T/C",[14],122%
same,"viability, T/C",[15],128%
same,"viability, T/C",[16],116%
same,"viability, T/C",[17],52.1%
same,"viability, T/C",[18],14.7%
same,"viability, T/C",[19],91.9%
same,"viability, T/C",[20],102%
same,"viability, T/C",[21],101%
same,"viability, T/C",[22],91%
same,"viability, T/C",[23],80.4%
same,"viability, T/C",[24],17.9%
same,"viability, T/C",[25],114%
same,"viability, T/C",[26],81.5%
same,"viability, T/C",[27],124%
same,"viability, T/C",[28],107%
same,"viability, T/C",[29],75.4%
same,"viability, T/C",[30],17.4%
same,"viability, T/C",[31],105%
same,"viability, T/C",[32],97.9%
same,"viability, T/C",[33],104%
same,"viability, T/C",[34],98.2%
same,"viability, T/C",[35],63.6%
same,"viability, T/C",[36],15%
COc1cccc2c1C(=O)c1c(O)c3c(c(O)c1C2=O)CC(O)(C(=O)CO)CC3OC1CC(N)C(O)C(C)O1 (stereo not drawn) + Cc1cnc(CNC(=O)c2c(=O)c3ccc(N4CCCN(C)CC4)nc3n3c2sc2ccccc23)cn1,IC50,second compound 0.0316 µM,> 10 µM
same,IC50,second compound 0.1 µM,3.67 µM
same,IC50,second compound 0.316 µM,< 0.0316 µM
same,IC50,second compound 1 µM,< 0.0316 µM
same,IC50,second compound 3.16 µM,< 0.0316 µM
same,IC50,second compound 10 µM,< 0.0316 µM
same,"viability, T/C",[1],83.7%
same,"viability, T/C",[2],79.4%
same,"viability, T/C",[3],67.2%
same,"viability, T/C",[4],75.3%
same,"viability, T/C",[5],73.1%
same,"viability, T/C",[6],55%
same,"viability, T/C",[7],54.3%
same,"viability, T/C",[8],71.3%
same,"viability, T/C",[9],58.3%
same,"viability, T/C",[10],51.1%
same,"viability, T/C",[11],53.6%
same,"viability, T/C",[12],42%
same,"viability, T/C",[13],52.8%
same,"viability, T/C",[14],39.7%
same,"viability, T/C",[15],42.1%
same,"viability, T/C",[16],40.4%
same,"viability, T/C",[17],60.5%
same,"viability, T/C",[18],42.2%
same,"viability, T/C",[19],50.6%
same,"viability, T/C",[20],40.2%
same,"viability, T/C",[21],37.1%
same,"viability, T/C",[22],43.2%
same,"viability, T/C",[23],52.2%
same,"viability, T/C",[24],38.8%
same,"viability, T/C",[25],38.5%
same,"viability, T/C",[26],41.3%
same,"viability, T/C",[27],41.3%
same,"viability, T/C",[28],41.8%
same,"viability, T/C",[29],51%
same,"viability, T/C",[30],27.4%
same,"viability, T/C",[31],44.9%
same,"viability, T/C",[32],40.2%
same,"viability, T/C",[33],46.6%
same,"viability, T/C",[34],50.5%
same,"viability, T/C",[35],36.8%
same,"viability, T/C",[36],11.8%
Cc1cccc(N(C)C(=O)C2C(O)CCN2c2nc(C)cc(C(F)(F)F)c2C#N)c1 (stereo not drawn) + CN(C)c1ccc(Nc2c3ccc(NC(=O)CCN4CCCC4)cc3nc3cc(NC(=O)CCN4CCCC4)ccc23)cc1,IC50,second compound 0.0316 µM,> 10 µM
same,IC50,second compound 0.1 µM,> 10 µM
same,IC50,second compound 0.316 µM,> 10 µM
same,IC50,second compound 1 µM,> 10 µM
same,IC50,second compound 3.16 µM,> 10 µM
same,IC50,second compound 10 µM,> 10 µM
same,"viability, T/C",[1],80.8%
same,"viability, T/C",[2],89.6%
same,"viability, T/C",[3],80.6%
same,"viability, T/C",[4],92.5%
same,"viability, T/C",[5],90.1%
same,"viability, T/C",[6],95.4%
same,"viability, T/C",[7],89.6%
same,"viability, T/C",[8],111%
same,"viability, T/C",[9],87.5%
same,"viability, T/C",[10],103%
same,"viability, T/C",[11],94.9%
same,"viability, T/C",[12],67.6%
same,"viability, T/C",[13],90.4%
same,"viability, T/C",[14],105%
same,"viability, T/C",[15],95.5%
same,"viability, T/C",[16],91.8%
same,"viability, T/C",[17],83.2%
same,"viability, T/C",[18],69.6%
same,"viability, T/C",[19],85.3%
same,"viability, T/C",[20],82.7%
same,"viability, T/C",[21],101%
same,"viability, T/C",[22],93.6%
same,"viability, T/C",[23],97.1%
same,"viability, T/C",[24],82.1%
same,"viability, T/C",[25],96.8%
same,"viability, T/C",[26],102%
same,"viability, T/C",[27],104%
same,"viability, T/C",[28],106%
same,"viability, T/C",[29],99.3%
same,"viability, T/C",[30],91.5%
same,"viability, T/C",[31],105%
same,"viability, T/C",[32],133%
same,"viability, T/C",[33],113%
same,"viability, T/C",[34],106%
same,"viability, T/C",[35],103%
same,"viability, T/C",[36],80.3%
CCCS(=O)(=O)Nc1ccc(F)c(C(=O)c2c[nH]c3ncc(-c4ccc(Cl)cc4)cc23)c1F + Cc1cnc(CNC(=O)c2c(=O)c3ccc(N4CCCN(C)CC4)nc3n3c2sc2ccccc23)cn1,IC50,second compound 0.0316 µM,> 10 µM
same,IC50,second compound 0.1 µM,0.777 µM
same,IC50,second compound 0.316 µM,0.037 µM
same,IC50,second compound 1 µM,0.0642 µM
same,IC50,second compound 3.16 µM,< 0.0316 µM
same,IC50,second compound 10 µM,< 0.0316 µM
same,"viability, T/C",[1],93.5%
same,"viability, T/C",[2],83.8%
same,"viability, T/C",[3],83.3%
same,"viability, T/C",[4],78.4%
same,"viability, T/C",[5],84.6%
same,"viability, T/C",[6],63.8%
same,"viability, T/C",[7],60.9%
same,"viability, T/C",[8],62.2%
same,"viability, T/C",[9],56.1%
same,"viability, T/C",[10],45.5%
same,"viability, T/C",[11],42.2%
same,"viability, T/C",[12],40%
same,"viability, T/C",[13],51.2%
same,"viability, T/C",[14],40.9%
same,"viability, T/C",[15],42.3%
same,"viability, T/C",[16],47.4%
same,"viability, T/C",[17],34.6%
same,"viability, T/C",[18],46.4%
same,"viability, T/C",[19],51.4%
same,"viability, T/C",[20],52.3%
same,"viability, T/C",[21],46.3%
same,"viability, T/C",[22],36.8%
same,"viability, T/C",[23],47.7%
same,"viability, T/C",[24],48.2%
same,"viability, T/C",[25],39.7%
same,"viability, T/C",[26],47.2%
same,"viability, T/C",[27],43.6%
same,"viability, T/C",[28],42%
same,"viability, T/C",[29],58%
same,"viability, T/C",[30],37.9%
same,"viability, T/C",[31],43.5%
same,"viability, T/C",[32],37%
same,"viability, T/C",[33],36.9%
same,"viability, T/C",[34],35.9%
same,"viability, T/C",[35],37.9%
same,"viability, T/C",[36],20.1%
